Measurements as given in ChEMBL document CHEMBL3421597, “(±) cis-Bisamido epoxides: A novel series of potent FXIII-A inhibitors” (Eur J Med Chem, 2015).
Calls of active or inactive are those of the source. The rule behind the calls is not given here.

Legend:
[1] = molecular target: T1, Coagulation factor XIII A chain (Homo sapiens, UniProt P00488); assay: Inhibition of thrombin-activated F13-A (unknown origin) in plasma assessed as inhibition of fibrin clot formation after 7 mins by biotin incorporation assay
T1 sequence (P00488 whole entry): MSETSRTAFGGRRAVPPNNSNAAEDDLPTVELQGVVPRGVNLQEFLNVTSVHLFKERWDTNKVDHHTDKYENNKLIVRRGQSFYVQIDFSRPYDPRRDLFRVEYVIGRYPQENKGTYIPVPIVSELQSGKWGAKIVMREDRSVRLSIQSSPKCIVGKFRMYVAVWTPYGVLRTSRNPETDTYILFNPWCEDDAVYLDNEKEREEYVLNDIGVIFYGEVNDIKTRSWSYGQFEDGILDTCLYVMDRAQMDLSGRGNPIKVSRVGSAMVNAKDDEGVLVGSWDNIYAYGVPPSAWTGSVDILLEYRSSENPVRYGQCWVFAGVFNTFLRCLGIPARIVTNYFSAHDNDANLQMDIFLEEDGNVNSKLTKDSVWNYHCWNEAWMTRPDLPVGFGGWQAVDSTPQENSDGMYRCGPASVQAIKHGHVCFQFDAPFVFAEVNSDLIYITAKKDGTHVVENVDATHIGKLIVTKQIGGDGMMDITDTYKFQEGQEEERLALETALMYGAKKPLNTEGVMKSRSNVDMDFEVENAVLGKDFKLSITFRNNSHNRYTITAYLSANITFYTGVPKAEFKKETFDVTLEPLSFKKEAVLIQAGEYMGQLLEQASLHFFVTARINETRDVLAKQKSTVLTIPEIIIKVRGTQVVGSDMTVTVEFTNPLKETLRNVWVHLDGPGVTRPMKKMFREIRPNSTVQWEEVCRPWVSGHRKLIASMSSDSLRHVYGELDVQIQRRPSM

[2] = molecular target: T2, Coagulation factor XIII A chain (Homo sapiens) (UniProt P00488); assay: Inhibition of F13-A in human plasma assessed as inhibition of fibrin clot formation at 1 X 10^-6 M by biotin incorporation assay; conditions: values are per cent of control
T2 sequence (whole entry): T1 sequence (P00488 whole entry)

[3] = molecular target: T2, Coagulation factor XIII A chain (Homo sapiens); assay: Inhibition of F13-A in human plasma assessed as inhibition of fibrin clot formation at 2 X 10^-7 M by biotin incorporation assay; conditions: values are per cent of control
[4] = molecular target: T2, Coagulation factor XIII A chain (Homo sapiens); assay: Inhibition of F13-A in human plasma assessed as inhibition of fibrin clot formation at 7.5 X 10^-8 M by biotin incorporation assay; conditions: values are per cent of control
[5] = molecular target: T2, Coagulation factor XIII A chain (Homo sapiens); assay: Inhibition of F13-A in human plasma assessed as inhibition of fibrin clot formation at 2 X 10^-8 M by biotin incorporation assay; conditions: values are per cent of control
[6] = molecular target: T2, Coagulation factor XIII A chain (Homo sapiens); assay: Inhibition of F13-A in human plasma assessed as inhibition of fibrin clot formation at 1 X 10^-6 M by biotin incorporation assay in presence of 10 X 10^-3 mol/l reduced GSH; conditions: values are per cent of control
[7] = molecular target: T2, Coagulation factor XIII A chain (Homo sapiens); assay: Inhibition of F13-A in human plasma assessed as inhibition of fibrin clot formation at 2 X 10^-7 M by biotin incorporation assay in presence of 10 X 10^-3 mol/l reduced GSH; conditions: values are per cent of control
[8] = molecular target: T2, Coagulation factor XIII A chain (Homo sapiens); assay: Inhibition of F13-A in human plasma assessed as inhibition of fibrin clot formation at 7.5 X 10^-8 M by biotin incorporation assay in presence of 10 X 10^-3 mol/l reduced GSH; conditions: values are per cent of control
[9] = molecular target: T2, Coagulation factor XIII A chain (Homo sapiens); assay: Inhibition of F13-A in human plasma assessed as inhibition of fibrin clot formation at 2 X 10^-8 M by biotin incorporation assay in presence of 10 X 10^-3 mol/l reduced GSH; conditions: values are per cent of control
[10] = molecular target: Cathepsin S (Homo sapiens) (UniProt P25774); assay: Inhibition of cathepsin S (unknown origin) using Z-Val-Val-Arg-AMC as substrate at 100 uM measured every minute for 30 mins by fluorometric plate reader analysis
Chain of Cathepsin S (Homo sapiens) (P25774 115-331 limits assumed): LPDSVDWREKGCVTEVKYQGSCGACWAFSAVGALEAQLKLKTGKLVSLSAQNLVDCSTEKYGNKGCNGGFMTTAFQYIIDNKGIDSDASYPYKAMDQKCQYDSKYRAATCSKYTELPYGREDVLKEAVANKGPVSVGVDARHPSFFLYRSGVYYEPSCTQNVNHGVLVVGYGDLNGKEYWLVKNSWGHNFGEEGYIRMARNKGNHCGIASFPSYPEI

[11] = species: Homo sapiens; assay: Selectivity ratio, ratio of concentration required for inhibition of cathepsin S (unknown origin) to IC50 for F13-A (unknown origin)
[12] = molecular target: T3, Protein-glutamine gamma-glutamyltransferase (Homo sapiens, UniProt P21980); assay: Inhibition of transglutaminase 2 (unknown origin)
T3 sequence (P21980 whole entry): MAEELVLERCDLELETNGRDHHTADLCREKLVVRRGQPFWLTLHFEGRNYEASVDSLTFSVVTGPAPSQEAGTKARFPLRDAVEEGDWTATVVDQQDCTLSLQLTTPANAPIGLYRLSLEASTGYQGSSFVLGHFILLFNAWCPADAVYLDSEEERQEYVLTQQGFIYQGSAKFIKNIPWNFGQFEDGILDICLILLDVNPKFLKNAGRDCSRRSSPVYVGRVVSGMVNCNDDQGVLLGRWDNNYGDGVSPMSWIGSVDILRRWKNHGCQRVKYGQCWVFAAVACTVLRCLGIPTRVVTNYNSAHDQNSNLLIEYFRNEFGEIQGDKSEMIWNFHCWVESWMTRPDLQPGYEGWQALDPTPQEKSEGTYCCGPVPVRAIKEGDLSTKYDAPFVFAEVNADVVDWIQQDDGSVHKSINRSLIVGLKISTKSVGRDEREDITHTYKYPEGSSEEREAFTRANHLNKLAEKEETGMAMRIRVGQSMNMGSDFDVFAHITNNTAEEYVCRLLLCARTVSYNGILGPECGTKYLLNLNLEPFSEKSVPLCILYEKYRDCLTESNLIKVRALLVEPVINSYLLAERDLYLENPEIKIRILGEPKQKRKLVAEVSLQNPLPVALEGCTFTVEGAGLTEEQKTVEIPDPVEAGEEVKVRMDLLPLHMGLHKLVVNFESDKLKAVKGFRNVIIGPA

[13] = molecular target: T2, Coagulation factor XIII A chain (Homo sapiens); assay: Inhibition of F13-A (unknown origin) at 10^-6 mol/l in presence of 5 X 10^-3 mol/l DTT
[14] = molecular target: T1, Coagulation factor XIII A chain; assay: Inhibition of F13-A in human plasma assessed as inhibition of fibrin clot formation by biotin incorporation assay in presence of 1 mM reduced GSH

Row | SMILES | IC50 [1] [µM] | residual activity [2] [%] | residual activity [3] [%] | residual activity [4] [%] | residual activity [5] [%] | residual activity [6] [%] | residual activity [7] [%] | residual activity [8] [%] | residual activity [9] [%] | inhibition [10] | Selectivity ratio [11] | IC50 [12] [µM] | inhibition [13] | IC50 [14] [µM]
1 | CCCCc1ccc(NC(=O)[C@@H]2O[C@@H]2C(N)=O)cc1 (racemic) | 0.22 | 27 | 76 | 99 | 93 | 34 | 79 | 104 | 102 | inactive | 10000 | 0.15 | – | –
2 | NC(=O)[C@H]1O[C@H]1C(=O)Nc1ccc(Oc2ccccc2)cc1 (racemic) | 0.055 | 6.1 | 32 | 66 | 96 | 7.8 | 47 | 78 | 90 | inactive | 10000 | 0.046 | Active | –
3 | NC(=O)[C@H]1O[C@H]1C(=O)Nc1cccc(Cl)c1 (racemic) | 0.048 | – | – | – | – | – | – | – | – | inactive | 10000 | 0.048 | – | –
4 | NC(=O)[C@H]1O[C@H]1C(=O)Nc1cccc(Oc2ccccc2)c1 (racemic) | 0.004 | – | – | – | – | – | – | – | – | inactive | 10000 | 0.05 | – | –
5 | NC(=O)[C@@H]1O[C@@H]1C(=O)Nc1ccccc1 (racemic) | 0.72 | – | – | – | – | – | – | – | – | inactive | 10000 | 1.1 | – | –
6 | NC(=O)[C@@H]1O[C@@H]1C(=O)Nc1ccc(Br)cc1 (racemic) | 0.13 | – | – | – | – | – | – | – | – | inactive | 10000 | 0.057 | – | –
7 | NC(=O)[C@@H]1O[C@@H]1C(=O)Nc1ccc(Br)c(Cl)c1 (racemic) | 0.004 | – | – | – | – | – | – | – | – | inactive | 10000 | 0.0096 | – | –
8 | Cc1ccc(NC(=O)[C@H]2O[C@H]2C(N)=O)cc1C (racemic) | 0.11 | – | – | – | – | – | – | – | – | inactive | 10000 | 0.13 | – | –
9 | NC(=O)[C@@H]1O[C@@H]1C(=O)Nc1ccc(CCNS(=O)(=O)c2ccccc2[N+](=O)[O-])cc1 (racemic) | 0.09 | – | – | – | – | – | – | – | – | inactive | 10000 | 0.088 | – | –
10 | NC(=O)[C@@H]1O[C@@H]1C(=O)Nc1ccc(Oc2ccc([N+](=O)[O-])cc2)cc1 (racemic) | 0.43 | – | – | – | – | – | – | – | – | inactive | 10000 | – | – | –
11 | NC(=O)[C@@H]1O[C@@H]1C(=O)Nc1ccc(Oc2ccc(N)cc2)cc1 (racemic) | 0.086 | – | – | – | – | – | – | – | – | inactive | 10000 | 0.048 | – | –
12 | NC(=O)[C@@H]1O[C@@H]1C(=O)Nc1ccc(Oc2ccc(NC(=O)c3ccc(F)cc3)cc2)cc1 (racemic) | 0.1 | – | – | – | – | – | – | – | – | inactive | 10000 | 0.15 | – | –
13 | C/C=C/C/C=C/CCC(=O)[C@H]1O[C@H]1C(N)=O [CERULENIN] | 4 | – | – | – | – | – | – | – | – | – | – | – | – | 18
